Results: ChEMBL document CHEMBL1201862, “PubChem BioAssay data set” (2004)
Active and inactive are the calls of the source.

Key:
[1] = tested on: Vero; test: cells; format: functional; conditions: Chlorocebus sabaeus
[2] = target: Photoreceptor-specific nuclear receptor (Homo sapiens, UniProt Q9Y5X4); format: functional, cell-based;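 further: CHO-S cells with Gal4-NCOR and VP16-NR2E3 two-hybrid luciferase reporter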
[3] = blockers of HIV-1 envelope-mediated cell-cell fusion – cherry-pick, dose response (AID 652057); format: functional, cell-based
[4] = viability loss in CEM21 cells – cell-based, CellTiter-Glo luminescence, cherry-picked, cytotoxicity control for viral fusion inhibitor project, dose response (AID 652042); format: functional;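 further: potency for signal decrease meaning cytotoxicity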
[5] = blockers of HIV-1 ZM109 envelope-driven cell-cell fusion – HeLa effector, CEM target cells, luciferase, cherry-pick, dose response (AID 652058); format: functional, cell-based;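 further: luciferase signal from HIV-1 Env mediated cell-cell fusion of effector and target cells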
[6] = off-target signal loss in HeLa-CEM21 co-culture – HeLa F-luc CTL cells, cherry-picked, counter-screen for HIV-1 Env fusion inhibitor project, dose response (AID 652040); format: functional, cell-based;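 further: potency for signal decrease marking cytotoxic or nonspecific inhibition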
[7] = HIV-1 AD8 envelope cell-cell fusion blockers – cherry-pick, dose response (AID 652062); format: functional, cell-based;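 further: luciferase signal from cell-cell fusion driven by HIV-1 clade B AD8 Env; potency is for inhibitors of fusion seen as a drop in luminescence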
[8] = reduced cellular PGC1a acetyl-lysine signal – cell-based, cherry-picked samples, dose response (AID 720514); format: functional;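 further: potency may reflect raised or lowered acetylation signal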
[9] = viability loss in HepG2 hepatoma cells – cell-based, ATP luminescence, cherry-pick, activator set 2, cytotoxicity control, dose response (AID 1053143); format: functional
[10] = tested on: Streptococcus sp. 'group A'; test: Streptococcus pyogenes SK(-)GAS viability under kanamycin – luminescence, BacTiterGlo, confirmation, counter-screen for streptokinase expression inhibitor project, dose response (AID 1900); format: functional, organism-based
[11] = target: T1, Streptokinase A (Streptococcus pyogenes serotype M1, UniProt P10520); test: viability-normalized secreted streptokinase activity reduction – plasminogen activation absorbance, OD405, dose response (AID 1914); format: functional, Streptococcus pyogenes M1 GAS;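 further: secreted streptokinase activity via plasminogen activation per viability signal from cell pellet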
T1 sequence (P10520 whole entry): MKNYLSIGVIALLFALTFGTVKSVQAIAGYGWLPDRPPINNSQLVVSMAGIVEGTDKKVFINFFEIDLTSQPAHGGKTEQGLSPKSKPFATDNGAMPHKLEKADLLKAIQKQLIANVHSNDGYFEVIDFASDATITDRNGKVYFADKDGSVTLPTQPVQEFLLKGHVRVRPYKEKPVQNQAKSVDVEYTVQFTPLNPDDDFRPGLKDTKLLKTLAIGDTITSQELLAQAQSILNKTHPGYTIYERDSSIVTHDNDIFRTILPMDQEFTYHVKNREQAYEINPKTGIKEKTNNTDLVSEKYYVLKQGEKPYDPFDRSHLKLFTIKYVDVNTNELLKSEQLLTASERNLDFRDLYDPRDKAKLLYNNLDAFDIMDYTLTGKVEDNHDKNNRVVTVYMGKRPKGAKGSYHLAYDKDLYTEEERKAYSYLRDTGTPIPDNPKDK

[12] = Trypanosoma cruzi growth suppression in host cells – NIH3T3 host cells, beta-gal luminescence, confirmation (AID 2044); format: functional, cell-based;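 further: intracellular parasites grown in NIH/3T3 mouse fibroblasts as host cells; luminescent beta-galactosidase reporter signal from transgenic T. cruzi replicating inside host cells; inhibitors lower the luminescence signal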
[13] = viability of PTEN-deleted HCT116 cells – cell-based, HCT116 PTEN knockout, dose response (AID 1047); format: functional;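 further: HCT116 colon tumor cells with PTEN knocked out; cells exposed to compound for 60 hours before readout; potency for loss of cell viability measured by luminescence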
[14] = NIH3T3 cell viability loss – ATP luminescence, mouse fibroblasts, counter-screen, dose response (AID 2010); format: functional, cell-based;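 further: cells exposed to compound for about 90 hours before reading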
[15] = viability of HCT116 lacking mutant beta-catenin – cell-based, human colon tumor, dose response (AID 1045); format: functional;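 further: HCT116 colon tumor cells with beta catenin knocked out; cells exposed to compound for 60 hours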
[16] = tested on: Streptococcus; test: GAS UMAA2166 growth inhibition – luminescence, BacTiterGlo, counter-screen for streptokinase expression inhibitor project, dose response (AID 1915); format: functional, organism-based;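 further: potency for reduction of bacterial viability or growth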
[17] = target: T2, Mannose-6-phosphate isomerase (Homo sapiens, UniProt P34949); test: MPI inhibition at elevated mannose 6-phosphate – biochemical, fluorescence intensity, high mannose 6-phosphate, primary screen (AID 1220)
T2 sequence (P34949 whole entry): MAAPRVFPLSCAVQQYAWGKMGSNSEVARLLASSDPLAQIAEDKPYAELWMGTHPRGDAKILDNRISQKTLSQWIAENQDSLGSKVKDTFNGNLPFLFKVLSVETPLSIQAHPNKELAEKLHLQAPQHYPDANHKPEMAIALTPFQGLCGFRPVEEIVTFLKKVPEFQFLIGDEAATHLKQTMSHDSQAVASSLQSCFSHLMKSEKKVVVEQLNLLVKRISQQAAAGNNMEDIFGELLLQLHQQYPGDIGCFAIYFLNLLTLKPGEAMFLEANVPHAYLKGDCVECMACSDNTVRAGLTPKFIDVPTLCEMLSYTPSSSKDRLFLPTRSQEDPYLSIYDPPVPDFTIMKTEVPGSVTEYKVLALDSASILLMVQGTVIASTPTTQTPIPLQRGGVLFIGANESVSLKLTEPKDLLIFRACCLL

[18] = target: T3, Replicative DNA helicase DnaB (Mycobacterium tuberculosis, UniProt P9WMR3); test: DnaB intein splicing inhibitors, dose response, biochemical, cell-free fluorescence (AID 449749); format: functional
T3 sequence (P9WMR3 whole entry): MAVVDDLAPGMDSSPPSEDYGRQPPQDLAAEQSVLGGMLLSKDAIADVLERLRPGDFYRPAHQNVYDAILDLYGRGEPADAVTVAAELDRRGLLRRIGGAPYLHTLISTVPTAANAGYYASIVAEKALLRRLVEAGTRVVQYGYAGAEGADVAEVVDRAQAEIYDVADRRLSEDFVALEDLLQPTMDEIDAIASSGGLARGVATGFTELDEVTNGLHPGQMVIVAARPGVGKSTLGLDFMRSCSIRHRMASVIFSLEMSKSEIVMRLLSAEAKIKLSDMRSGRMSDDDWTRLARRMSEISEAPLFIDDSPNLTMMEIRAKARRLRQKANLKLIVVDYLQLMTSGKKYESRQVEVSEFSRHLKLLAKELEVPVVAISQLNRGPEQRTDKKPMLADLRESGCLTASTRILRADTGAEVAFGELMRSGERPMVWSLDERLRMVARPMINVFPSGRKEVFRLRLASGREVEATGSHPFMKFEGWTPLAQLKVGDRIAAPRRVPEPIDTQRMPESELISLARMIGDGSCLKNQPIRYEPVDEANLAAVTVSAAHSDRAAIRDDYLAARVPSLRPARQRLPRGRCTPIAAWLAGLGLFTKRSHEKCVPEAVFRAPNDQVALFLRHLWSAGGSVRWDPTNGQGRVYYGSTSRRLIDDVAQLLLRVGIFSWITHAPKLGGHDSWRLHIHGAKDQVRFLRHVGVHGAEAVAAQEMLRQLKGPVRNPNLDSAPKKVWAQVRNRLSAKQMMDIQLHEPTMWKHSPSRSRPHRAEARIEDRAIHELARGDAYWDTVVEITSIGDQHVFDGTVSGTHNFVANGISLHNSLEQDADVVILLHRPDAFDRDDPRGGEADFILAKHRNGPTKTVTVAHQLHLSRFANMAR

[19] = target: Heat shock protein HSP 90-alpha (Homo sapiens, UniProt P07900); format: functional, organism-based
[20] = tested on: Vero; test: viability of Vero cells under compound – cytotoxicity control for flavivirus capping enzyme inhibitors (AID 588742); format: functional; conditions: Chlorocebus sabaeus
[21] = target: T4, Protein RecA (Mycobacterium tuberculosis, UniProt P9WHJ3); test: Fluorescence Cell-Free Homogeneous Dose Retest to Identify Inhibitors of RecA-Intein Splicing Activity. [Related pubchem assays (depositor defined):AID2097, AID2223, AID489010, AID492950]; format: functional
T4 sequence (P9WHJ3 whole entry): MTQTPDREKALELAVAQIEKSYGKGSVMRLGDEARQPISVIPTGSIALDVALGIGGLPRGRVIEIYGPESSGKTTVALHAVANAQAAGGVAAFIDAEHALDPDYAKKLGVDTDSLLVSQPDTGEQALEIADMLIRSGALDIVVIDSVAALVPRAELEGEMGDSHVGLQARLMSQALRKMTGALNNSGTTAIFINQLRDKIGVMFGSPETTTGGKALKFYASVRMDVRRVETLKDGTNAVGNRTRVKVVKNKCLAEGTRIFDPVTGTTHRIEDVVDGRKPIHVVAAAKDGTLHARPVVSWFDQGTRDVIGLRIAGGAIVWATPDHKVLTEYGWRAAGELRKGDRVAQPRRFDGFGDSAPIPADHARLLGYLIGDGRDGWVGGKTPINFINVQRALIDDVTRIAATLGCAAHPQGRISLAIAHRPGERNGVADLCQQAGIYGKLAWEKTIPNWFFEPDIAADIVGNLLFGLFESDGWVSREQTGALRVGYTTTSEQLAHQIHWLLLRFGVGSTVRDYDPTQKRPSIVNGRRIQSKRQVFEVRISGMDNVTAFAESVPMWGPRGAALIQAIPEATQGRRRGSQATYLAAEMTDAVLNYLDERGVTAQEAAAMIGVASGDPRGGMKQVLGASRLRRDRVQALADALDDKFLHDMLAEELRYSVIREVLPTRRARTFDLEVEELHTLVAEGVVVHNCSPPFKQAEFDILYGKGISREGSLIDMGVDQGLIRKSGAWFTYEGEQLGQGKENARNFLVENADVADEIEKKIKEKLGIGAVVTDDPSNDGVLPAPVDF

[22] = tested on: INS1; test: INS-1E survival protection against cytokine death – cell-based, luminescence, retest, dose response (AID 449756); format: functional; conditions: Rattus norvegicus, INS1;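 further: cell death triggered by IL-1 beta plus TNF-alpha plus IFN-gamma mixture; protective hits raise ATP signal compared with cytokine alone wells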
[23] = target: Kallikrein-7 (Homo sapiens, UniProt P49862); test: Fluorescence Intensity-based biochemical primary high throughput dose response assay to identify activators of kallikrein-7 (K7) zymogen.
Sequence of Kallikrein-7 (P49862 whole entry): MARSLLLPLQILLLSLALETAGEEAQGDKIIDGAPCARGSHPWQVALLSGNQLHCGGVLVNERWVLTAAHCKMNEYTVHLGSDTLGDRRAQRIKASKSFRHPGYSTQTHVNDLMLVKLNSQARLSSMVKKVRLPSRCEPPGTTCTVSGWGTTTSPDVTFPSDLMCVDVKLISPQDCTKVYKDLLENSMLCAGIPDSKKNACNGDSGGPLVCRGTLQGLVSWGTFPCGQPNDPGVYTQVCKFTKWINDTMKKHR

[24] = growth inhibition of yeast DHODH-expressing 3D7 parasites – SYBR Green, dry powder samples, dose response (AID 1159570); format: functional, cell-based;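 further: parasite growth measured after 72 hours of compound exposure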
[25] = toxicity to human HepG2 hepatoma cells – cell-based, plate reader, dry powder samples, cytotoxicity control, dose response (AID 1159569); format: functional;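 further: inhibitor potency with signal falling toward the positive control level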
[26] = Dd2 parasite growth inhibition in erythrocytes – SYBR Green, dry powder samples, set 9, dose response (AID 1159568); format: functional, cell-based
[27] = P. falciparum Dd2 growth inhibitors, dose response, SYBR Green, cherry-picked samples (AID 1159567); format: functional, cell-based
[28] = Dd2 malaria parasite growth inhibition potency – SYBR Green, dry powder samples, dose response (AID 1159566); format: functional, cell-based;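 further: potency for growth inhibition with lower SYBR green DNA signal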
[29] = growth inhibition of PfATP4-mutant resistant parasites – NITD609-resistant line, SYBR Green, dry powder, dose response (AID 1159571); format: functional, cell-based;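 further: parasites synchronized at ring stage by sorbitol before testing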
[30] = microbe, parasite or virus in culture; format: functional; conditions: Mycobacterium tuberculosis
[31] = cells; format: functional
[32] = general mammalian cell viability loss – inhibitor set, cherry-pick, set 2, cytotoxicity control for miR-122 modulator project, dose response (AID 720697); format: functional, cell-based
[33] = target: FAD-linked sulfhydryl oxidase ALR (Homo sapiens, UniProt P55789); test: ALR-catalysed DTT oxidation blockers – biochemical, H2O2 detection, luminescence, cherry-pick, dose response (AID 493248)
Sequence of FAD-linked sulfhydryl oxidase ALR (P55789 whole entry): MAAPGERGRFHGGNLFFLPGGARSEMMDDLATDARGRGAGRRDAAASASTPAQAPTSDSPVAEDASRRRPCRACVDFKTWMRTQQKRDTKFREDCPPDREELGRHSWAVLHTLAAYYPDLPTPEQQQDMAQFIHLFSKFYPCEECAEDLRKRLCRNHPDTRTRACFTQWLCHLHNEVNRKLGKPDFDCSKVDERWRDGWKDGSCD

Sequence of Photoreceptor-specific nuclear receptor (Q9Y5X4 whole entry, the tested form may be a part): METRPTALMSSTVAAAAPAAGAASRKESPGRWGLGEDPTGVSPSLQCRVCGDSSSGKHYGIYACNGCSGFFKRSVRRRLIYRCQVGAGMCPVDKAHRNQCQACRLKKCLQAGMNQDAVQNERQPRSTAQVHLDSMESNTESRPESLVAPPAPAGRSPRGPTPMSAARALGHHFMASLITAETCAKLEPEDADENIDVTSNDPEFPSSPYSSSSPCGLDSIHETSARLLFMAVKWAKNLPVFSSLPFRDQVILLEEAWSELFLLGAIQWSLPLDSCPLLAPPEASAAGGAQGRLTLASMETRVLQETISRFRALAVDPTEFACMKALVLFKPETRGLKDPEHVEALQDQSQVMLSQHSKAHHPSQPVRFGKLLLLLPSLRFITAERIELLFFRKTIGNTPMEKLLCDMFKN

## CN(C)c1ncnc2c1ccn2C1OC(CO)C(O)C1O (configuration not stated)
[1]
  CC50: > 25 µM (active)
[2]
  IC50: 1.45 µM (active)
[3]
  AC50: 4.51 µM (active)
[4]
  AC50: 1.39 µM (active)
[5]
  AC50: 3.41 µM (active)
[6]
  AC50: 1.9 µM (active)
[7]
  AC50: 1.89 µM (active)

## O=C(NC1CCCCCCC1O)c1ccccc1 (configuration not stated)
[8]
  AC50: 35.4 µM (active)

## O=C(c1ccc2c3n(nc2c1)-c1ccc(Cl)cc1CO3)N1CCCCC1
[9]
  AC50: 26 µM (active)

## O=C1C=CCCN1C(=O)/C=C/c1cccc(Br)c1
[8]
  AC50: 0.949 µM (active)

## CC(=O)C1=C(c2ccc(Br)cc2)C(=O)c2ccccc2C1=O
[10]
  EC50: 1 µM (active)
[11]
  EC50: 7.12 µM (active)
[12]
  EC50: 2.01 µM (active)
[13]
  EC50: 1.98 µM (active)
[14]
  EC50: 2.42 µM (active)
[15]
  EC50: 1.81 µM (active)
[16]
  EC50: 9.4 µM (active)
[17]
  IC50: 3.13 µM (active)
[18]
  AC50: 3.05 µM (active)
[19]
  AC50: 7.99 µM (active)
[20]
  CC50: 9.68 µM (active)
[21]
  EC50: 1.94 µM (active)
[22]
  AC50: 1.06 µM (active)

## O=C1C=CCCN1S(=O)(=O)/C=C/c1ccccc1
[8]
  AC50: 1.19 µM (active)

## N#Cc1c(N2CCOCC2)nc(N)c2c(N)nc3c(c12)CC(CCl)O3 (configuration not stated)
[23]
  EC50: > 69.5 µM (inactive)

## C[C@H](CO)N1C[C@H](C)[C@H](CN(C)C(=O)C2CCCCC2)Oc2ncc(C#Cc3cccc(F)c3)cc2C1=O
[24]
  AC50: 0.848 µM (active)
[25]
  AC50: 49.1 µM (active)
[26]
  AC50: 0.269 µM (active)
[27]
  AC50: 1.39 µM (active)
[28]
  AC50: 0.408 µM (active)
[29]
  AC50: 0.725 µM (active)

## O=C(Nc1ccccc1F)N1CCCCN2[C@H](CO)[C@H](c3ccc(/C=C/c4ccccc4)cc3)[C@@H]2C1
[26]
  AC50: 12 µM (active)

## Cc1cc(=O)n2cccc(O)c2n1
[30]
  CC50: > 40 µM (active)
[17]
  IC50: 22.9 µM (active)
[31]
  IC50: 9.19 µM (active)

## CC(C)C(=O)Nc1ccc2c(c1)C(=O)N(C)[C@H]1CC[C@H](CC(=O)O)O[C@H]1CO2
[32]
  AC50: 0.437 µM (active)

## Cc1nn(-c2ccccc2)c2c1cc1c(=O)n(C)c(=O)nc-1n2-c1ccccc1F
[23]
  EC50: 52.9 µM (inactive)

## Cc1ccc(Nc2nc(-c3ccc(O)cc3O)cs2)nc1
[33]
  AC50: 0.288 µM (active)
[9]
  AC50: 26 µM (active)

## CCCCn1c(Cc2ccccc2)nnc1SCC(=O)Nc1cc(C)on1
[17]
  IC50: > 50 µM (not active)

## CS(=O)(=O)Nc1ccc(-c2cnc3cccnn23)cc1
[23]
  EC50: 24.1 µM (inactive)

## C[C@H](CO)N1C[C@H](C)[C@H](CN(C)C(=O)C2CCC2)Oc2cc(-c3ccc(C(=O)N(C)C)cc3)ccc2S1(=O)=O
[32]
  AC50: 9.74 µM (active)
